According to patent US5324633A, “Method and apparatus for measuring binding affinity” (Affymax Technologies N.V., priority 1991, dated 1994):
Where two headings read alike, the source gives them in different places. Where no end group is shown, it is not given here.

Columns and labels:
Herz antibody [1] = assay: Binding affinity of fluorescein-labelled receptor to surface-bound peptide, confocal fluorescence intensity at varying receptor concentrations
Excerpt: At step 104 the array or arrays of polymers are exposed to a receptor at a first solution concentration [R]1. According to some embodiments the receptor is marked with an appropriate label such as a fluorescein tag. Fluorescent tags are preferred because the measurements herein are usually taken with a receptor solution in contact with the immobilized ligands to ensure that the immobilized ligand are in equilibrium with the receptor. […] Confocal microscopy provides one preferred method of distinguishing between surface receptor fluorescence and background fluorescence from bulk solution receptors, due to the limited depth of field of a confocal microscope. Because the microscope cannot completely exclude fluorescence from bulk solution, contributions of the bulk fluorescence can be eliminated by comparing areas of derivatized and underivatized substrates. This method for eliminating background fluorescence may not be accurate at high receptor concentrations, when non-specific receptor binding to underivatized substrates becomes non-negligible.
At step 106 the array of the polymers is exposed to the receptor, for a time sufficient to allow receptor-ligand interaction, preferably to equilibrium conditions, and at step 108 the fluorescence intensity of the receptor at each of the concentrations [R]n is determined for each of the ligands on each array. […]
At step 110 this information is fit to analysis equations or otherwise processed for determination of the binding affinity of the receptor to the various ligands on the substrate and at step 112 the Kd values, among others, are extracted. In a most preferred embodiment the data are used to determine binding affinity by determining the slope of a best fit line through a plot having, on the y-axis, the ratio of fluorescence intensity to receptor concentration and, on the x-axis, the fluorescence intensity. […] To faciltate comparison to other experiments, one can plot normalized fluorescence intensity on the y axis or receptor concentration on the x axis. […]

Herz antibody [2] = conditions: solution, comparison value, cited from earlier work

Substance	binding affinity by interpolating plot of relative fluorescence intensity vs log10 receptor concentration (FIG. 5) (Herz antibody [1]; interpolated between 10^-8 M and 10^-9 M curves, peptide synthesized as free peptide then immobilized on surface)	Kd from slope of best fit line, ratio of fluorescence intensity to receptor concentration vs fluorescence intensity (FIG. 4) (Herz antibody [1]; peptide synthesized on substrate, equilibrium over about 24 hours, non-derivatized substrate background subtracted) [nM]	Kd (Herz antibody [2]; read-out: Kd value from other solution experiments) [nM]	Kd (Herz antibody [1]; sequences synthesized on different chips, exposed to Herz antibody, read-out: Kd / binding affinity from isotherms (FIG. 6)) [nM]	Kd (Herz antibody [2]; read-out: binding affinity value from other solution experiments) [nM]
YGGFL	about 1.8×10^-8 M	18	10		
YGTFL (not fully specified)				~700	500
